Source: ChEMBL document CHEMBL5050833, “Novel cyclic trex1 inhibitors” (2020)

species on record: Mus musculus; experiment: Binding affinity to recombinant mouse TREX1 incubated in assay buffer and measured by thermal shift binding assay; note: test concentration or dose not given here

Compound | ΔTm [°C]
N[C@@H]1C[C@H]2C(=O)N([C@H](CCC(=O)O)C(=O)NCc3ccc(C(F)(F)F)cc3)CCC(CCc3ccccc3)N2C1 (stereo in doubt; form 2) [listing 1 of 2 here] | 4

tested on: not listed separately; experiment: Inhibition of mouse TREX1 exonuclease activity using labeled DNA oligonucleotide as substrate incubated for 30 mins and measured after 45 mins by fluorescence assay

IC50 | Compound
< 1000 nM | N[C@@H]1C[C@H]2C(=O)N([C@H](CCC(=O)O)C(=O)NCc3ccc(Cl)c(Cl)c3)CCC(CCc3ccccc3)N2C1 (stereo in doubt; form 2)
in the range around 10000 nM | CC(C)C[C@H](C(=O)NCc1ccc(Cl)c(Cl)c1)N1CC(CCc2ccccc2)N2C[C@H](N)C[C@H]2C1=O (stereo not given in full)
< 1000 nM | Cc1nnc(CC[C@H](C(=O)NCc2ccc(Cl)c(Cl)c2)N2CCC(CCc3ccccc3)N3C[C@H](N)C[C@H]3C2=O)[nH]1 (stereo not given in full)
< 1000 nM | N[C@@H]1C[C@H]2C(=O)N([C@H](CC(=O)O)C(=O)NCc3ccc(Cl)c(Cl)c3)CCC(CCc3ccccc3)N2C1 (stereo not given in full)
< 1000 nM | N#CCC[C@H](C(=O)NCc1ccc(Cl)c(Cl)c1)N1CCC(CCc2ccccc2)N2C[C@H](N)C[C@H]2C1=O (stereo not given in full)
in the range around 1000 nM | CC(C)C[C@H](C(=O)NCc1cc(Cl)cc(Cl)c1)N1CCC(CCc2ccccc2)N2C[C@H](N)C[C@H]2C1=O (stereo not given in full)
in the range around 1000 nM | CC(C)C[C@H](C(=O)NCc1ccc(Cl)c(Cl)c1)N1CCC(Cc2ccccc2)N2C[C@H](N)C[C@H]2C1=O (stereo not given in full)
in the range around 10000 nM | N[C@@H]1C[C@H]2C(=O)N([C@H](CCC(=O)O)C(=O)NCc3ccc(Cl)c(Cl)c3)CCC(CCc3ccccc3)N2C1 (stereo in doubt; form 1)
< 1000 nM | N[C@@H]1C[C@H]2C(=O)N([C@H](CCC(=O)O)C(=O)NCc3ccc(Cl)c(Cl)c3)CCC(COc3ccccc3)N2C1 (stereo not given in full)

The next lines start with the molecule.

Compound | IC50
C[C@H](C(=O)NCc1ccc(C(F)(F)F)cc1)N1CCC(CCc2ccccc2)N2C[C@H](N)C[C@H]2C1=O (stereo not given in full) | < 1000 nM
CC(C)C[C@H](C(=O)NS(=O)(=O)c1ccccc1)N1CCC(CCc2ccccc2)N2C[C@H](N)C[C@H]2C1=O (stereo not given in full) | in the range around 1000 nM
Cc1ccc(CNC(=O)[C@@H](CC(C)C)N2CCC(CCc3ccccc3)N3C[C@H](N)C[C@H]3C2=O)cc1 (stereo not given in full) | in the range around 1000 nM
CC(C)C[C@H](C(=O)N(C)Cc1ccc(C(F)(F)F)cc1)N1CCC(CCc2ccccc2)N2C[C@H](N)C[C@H]2C1=O (stereo not given in full) | in the range around 1000 nM
CC(C)C[C@H](C(=O)NCc1cccc(Cl)c1)N1CCC(CCc2ccccc2)N2C[C@H](N)C[C@H]2C1=O (stereo not given in full) | in the range around 1000 nM
CC(C)C[C@H](C(=O)NCCc1ccccc1)N1CCC(CCc2ccccc2)N2C[C@H](N)C[C@H]2C1=O (stereo not given in full) | in the range around 10000 nM
CC(C)C[C@H](C(=O)NCc1ccc(Cl)cc1)N1CCC(CCc2ccccc2)N2C[C@H](N)C[C@H]2C1=O (stereo not given in full) | in the range around 1000 nM
CC(C)C[C@H](C(=O)NCc1ccc(Cl)cc1)N1CCC(C[S@+]([O-])c2ccccc2)N2C[C@H](N)C[C@H]2C1=O (stereo not given in full) | in the range around 1000 nM
N[C@@H]1C[C@H]2C(=O)N([C@H](CCC(=O)O)C(=O)NCc3ccc(C(F)(F)F)cc3)CCC(CCc3ccccc3)N2C1 (stereo in doubt; form 2) [listing 2 of 2 here] | < 1000 nM
N[C@@H]1C[C@H]2C(=O)N([C@H](CCC(=O)O)C(=O)NCc3ccc(C(F)(F)F)cc3)CCC(CCc3ccccc3)N2C1 (stereo in doubt; form 1) | in the range around 10000 nM
CC(C)C[C@H](C(=O)NCc1ccccc1Cl)N1CCC(CCc2ccccc2)N2C[C@H](N)C[C@H]2C1=O (stereo not given in full) | in the range around 10000 nM
CC(C)C[C@H](C(=O)NCc1ccccc1)N1CCC(CCc2ccccc2)N2C[C@H](N)C[C@H]2C1=O (stereo not given in full) | in the range around 10000 nM
CC(C)C[C@H](C(=O)N[C@@H](C)c1ccccc1)N1CCC(CCc2ccccc2)N2C[C@H](N)C[C@H]2C1=O (stereo not given in full) | in the range around 10000 nM
CC(C)C[C@H](C(=O)NCc1ccc(Cl)cc1)N1CCC(CS(=O)(=O)c2ccccc2)N2C[C@H](N)C[C@H]2C1=O (stereo not given in full) | in the range around 10000 nM

tested on: not listed separately; experiment: Inhibition of human TREX1 exonuclease activity using labeled DNA oligonucleotide as substrate incubated for 30 mins and measured after 45 mins by fluorescence assay

IC50 | Compound
< 1000 nM | N[C@@H]1C[C@H]2C(=O)N([C@H](CCC(=O)O)C(=O)NCc3ccc(Cl)c(Cl)c3)CCC(CCc3ccccc3)N2C1 (stereo in doubt; form 2)
in the range around 10000 nM | CC(C)C[C@H](C(=O)NCc1ccc(Cl)c(Cl)c1)N1CC(CCc2ccccc2)N2C[C@H](N)C[C@H]2C1=O (stereo not given in full)
< 1000 nM | Cc1nnc(CC[C@H](C(=O)NCc2ccc(Cl)c(Cl)c2)N2CCC(CCc3ccccc3)N3C[C@H](N)C[C@H]3C2=O)[nH]1 (stereo not given in full)
< 1000 nM | N[C@@H]1C[C@H]2C(=O)N([C@H](CC(=O)O)C(=O)NCc3ccc(Cl)c(Cl)c3)CCC(CCc3ccccc3)N2C1 (stereo not given in full)
< 1000 nM | N#CCC[C@H](C(=O)NCc1ccc(Cl)c(Cl)c1)N1CCC(CCc2ccccc2)N2C[C@H](N)C[C@H]2C1=O (stereo not given in full)
< 1000 nM | CC(C)C[C@H](C(=O)NCc1cc(Cl)cc(Cl)c1)N1CCC(CCc2ccccc2)N2C[C@H](N)C[C@H]2C1=O (stereo not given in full)
in the range around 1000 nM | CC(C)C[C@H](C(=O)NCc1ccc(Cl)c(Cl)c1)N1CCC(Cc2ccccc2)N2C[C@H](N)C[C@H]2C1=O (stereo not given in full)
in the range around 10000 nM | N[C@@H]1C[C@H]2C(=O)N([C@H](CCC(=O)O)C(=O)NCc3ccc(Cl)c(Cl)c3)CCC(CCc3ccccc3)N2C1 (stereo in doubt; form 1)
< 1000 nM | N[C@@H]1C[C@H]2C(=O)N([C@H](CCC(=O)O)C(=O)NCc3ccc(Cl)c(Cl)c3)CCC(COc3ccccc3)N2C1 (stereo not given in full)

More lines, now with the values behind:

Compound | IC50
C[C@H](C(=O)NCc1ccc(C(F)(F)F)cc1)N1CCC(CCc2ccccc2)N2C[C@H](N)C[C@H]2C1=O (stereo not given in full) | < 1000 nM
CC(C)C[C@H](C(=O)NS(=O)(=O)c1ccccc1)N1CCC(CCc2ccccc2)N2C[C@H](N)C[C@H]2C1=O (stereo not given in full) | in the range around 1000 nM
Cc1ccc(CNC(=O)[C@@H](CC(C)C)N2CCC(CCc3ccccc3)N3C[C@H](N)C[C@H]3C2=O)cc1 (stereo not given in full) | in the range around 1000 nM
CC(C)C[C@H](C(=O)N(C)Cc1ccc(C(F)(F)F)cc1)N1CCC(CCc2ccccc2)N2C[C@H](N)C[C@H]2C1=O (stereo not given in full) | in the range around 1000 nM
CC(C)C[C@H](C(=O)NCc1cccc(Cl)c1)N1CCC(CCc2ccccc2)N2C[C@H](N)C[C@H]2C1=O (stereo not given in full) | < 1000 nM
CC(C)C[C@H](C(=O)NCCc1ccccc1)N1CCC(CCc2ccccc2)N2C[C@H](N)C[C@H]2C1=O (stereo not given in full) | in the range around 1000 nM
CC(C)C[C@H](C(=O)NCc1ccc(Cl)cc1)N1CCC(CCc2ccccc2)N2C[C@H](N)C[C@H]2C1=O (stereo not given in full) | < 1000 nM
CC(C)C[C@H](C(=O)NCc1ccc(Cl)cc1)N1CCC(C[S@+]([O-])c2ccccc2)N2C[C@H](N)C[C@H]2C1=O (stereo not given in full) | < 1000 nM
N[C@@H]1C[C@H]2C(=O)N([C@H](CCC(=O)O)C(=O)NCc3ccc(C(F)(F)F)cc3)CCC(CCc3ccccc3)N2C1 (stereo in doubt; form 2) [listing 2 of 2 here] | < 1000 nM
N[C@@H]1C[C@H]2C(=O)N([C@H](CCC(=O)O)C(=O)NCc3ccc(C(F)(F)F)cc3)CCC(CCc3ccccc3)N2C1 (stereo in doubt; form 1) | in the range around 10000 nM
CC(C)C[C@H](C(=O)NCc1ccccc1Cl)N1CCC(CCc2ccccc2)N2C[C@H](N)C[C@H]2C1=O (stereo not given in full) | in the range around 1000 nM
CC(C)C[C@H](C(=O)NCc1ccccc1)N1CCC(CCc2ccccc2)N2C[C@H](N)C[C@H]2C1=O (stereo not given in full) | in the range around 1000 nM
CC(C)C[C@H](C(=O)N[C@@H](C)c1ccccc1)N1CCC(CCc2ccccc2)N2C[C@H](N)C[C@H]2C1=O (stereo not given in full) | in the range around 10000 nM
CC(C)C[C@H](C(=O)NCc1ccc(Cl)cc1)N1CCC(CS(=O)(=O)c2ccccc2)N2C[C@H](N)C[C@H]2C1=O (stereo not given in full) | in the range around 1000 nM

species on record: Homo sapiens; experiment: Binding affinity to recombinant human TREX1 incubated in assay buffer and measured by thermal shift binding assay; note: test concentration or dose not given here

Compound | ΔTm [°C]
N[C@@H]1C[C@H]2C(=O)N([C@H](CCC(=O)O)C(=O)NCc3ccc(C(F)(F)F)cc3)CCC(CCc3ccccc3)N2C1 (stereo in doubt; form 2) [listing 1 of 2 here] | > 8

species on record: Mus musculus; experiment: Binding affinity to recombinant mouse TREX1 incubated in PBS and measured by thermal shift binding assay; note: test concentration or dose not given here

Compound | ΔTm [°C]
N[C@@H]1C[C@H]2C(=O)N([C@H](CCC(=O)O)C(=O)NCc3ccc(C(F)(F)F)cc3)CCC(CCc3ccccc3)N2C1 (stereo in doubt; form 2) [listing 1 of 2 here] | 4

species on record: Homo sapiens; experiment: Binding affinity to recombinant human TREX1 incubated in PBS and measured by thermal shift binding assay; note: test concentration or dose not given here

Compound | ΔTm [°C]
N[C@@H]1C[C@H]2C(=O)N([C@H](CCC(=O)O)C(=O)NCc3ccc(C(F)(F)F)cc3)CCC(CCc3ccccc3)N2C1 (stereo in doubt; form 2) [listing 1 of 2 here] | > 8
